Values of other authors as cited in patent US20100076037A1, “Methods of Treating Neuropathic Pain with Agonists of PPAR-gamma” (priority 2006, published 2010).
Like-named read-outs stand apart in the source and are kept apart here.

Columns and labels:
[1] = tested on: db/db mice; settings: cited from earlier work
[2] = tested on: ob/ob mice; settings: cited from earlier work
[3] = cited from earlier work
[4] = presence and absence of insulin; cited from earlier work
[5] = tested on: PPARalpha target protein; settings: HepG2; cited from earlier work
[6] = tested on: human macrophages; settings: 5 microM; cells exposed to high fatty acids and TGs; cited from earlier work
[7] = tested on: arterial smooth muscle cells (SMCs); settings: 5 or 10 microM; cited from earlier work
[8] = tested on: cytochrome P450 (CYP)4A; settings: 0.13 microg/kg; cited from earlier work
[9] = tested on: obese Zucker rats; settings: cited from earlier work
[10] = tested on: human apoB/CETP double-transgenic mouse; settings: tesaglitazar 1 microM/kg/day for 2 weeks; cited from earlier work
[11] = tested on: high-fat-fed Wistar rats; settings: cited from earlier work
[12] = tested on: ob/ob mice; settings: cited from earlier work; remark: listed apart in the source
[13] = tested on: apoE*3 Leiden transgenic mice; settings: cited from earlier work
[14] = molecular target: T1, P-glycoprotein (Homo sapiens, UniProt P08183); settings: cited from earlier work
T1 construct: host or cells: Caco2 and MDCK-MDR1 monolayers (tie to the P-gp statement is grammatically loose)
T1 sequence (P08183 whole entry): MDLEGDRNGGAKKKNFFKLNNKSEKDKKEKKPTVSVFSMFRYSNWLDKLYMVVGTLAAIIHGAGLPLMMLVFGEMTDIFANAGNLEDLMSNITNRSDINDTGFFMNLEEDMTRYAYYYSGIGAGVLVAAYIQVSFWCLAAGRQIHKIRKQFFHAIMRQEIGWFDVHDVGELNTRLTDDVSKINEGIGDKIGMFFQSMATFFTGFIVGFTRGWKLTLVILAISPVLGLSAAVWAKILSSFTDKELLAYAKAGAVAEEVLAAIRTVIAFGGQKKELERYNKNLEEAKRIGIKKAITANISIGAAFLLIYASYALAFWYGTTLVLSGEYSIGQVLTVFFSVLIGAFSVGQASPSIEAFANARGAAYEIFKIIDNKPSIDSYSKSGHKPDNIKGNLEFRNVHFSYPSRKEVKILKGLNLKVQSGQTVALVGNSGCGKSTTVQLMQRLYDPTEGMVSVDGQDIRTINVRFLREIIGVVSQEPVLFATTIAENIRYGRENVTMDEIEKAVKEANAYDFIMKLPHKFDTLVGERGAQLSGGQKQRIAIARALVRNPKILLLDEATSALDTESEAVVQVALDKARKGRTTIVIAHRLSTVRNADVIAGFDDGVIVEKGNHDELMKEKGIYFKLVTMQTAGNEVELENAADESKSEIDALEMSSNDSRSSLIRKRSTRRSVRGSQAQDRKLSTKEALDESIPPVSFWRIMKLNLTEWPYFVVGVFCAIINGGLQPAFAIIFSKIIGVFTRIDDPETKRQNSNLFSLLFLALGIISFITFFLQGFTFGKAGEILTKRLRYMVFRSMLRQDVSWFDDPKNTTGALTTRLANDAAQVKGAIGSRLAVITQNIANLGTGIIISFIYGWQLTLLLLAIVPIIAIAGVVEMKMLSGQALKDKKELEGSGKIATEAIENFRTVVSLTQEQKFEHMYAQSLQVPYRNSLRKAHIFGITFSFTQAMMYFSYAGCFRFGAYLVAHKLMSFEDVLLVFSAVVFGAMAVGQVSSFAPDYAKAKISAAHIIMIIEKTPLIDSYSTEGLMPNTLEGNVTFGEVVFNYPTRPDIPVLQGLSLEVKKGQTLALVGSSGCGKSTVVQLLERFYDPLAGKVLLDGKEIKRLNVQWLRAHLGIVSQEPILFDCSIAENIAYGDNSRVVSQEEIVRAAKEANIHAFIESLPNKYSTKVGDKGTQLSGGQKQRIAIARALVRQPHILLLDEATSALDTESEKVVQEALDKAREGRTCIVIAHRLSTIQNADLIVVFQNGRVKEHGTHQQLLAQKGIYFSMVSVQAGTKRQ

[15] = tested on: recombinant human CYPs (CYP1A2, CYP2A6, CYP2C8, CYP2C9, CYP2C19, CYP2D6 and CYP3A4); settings: 0.09 to 200 microM; cited from earlier work
[16] = cited from earlier work; remark: listed apart in the source
[17] = 1 mg, cited from earlier work
[18] = healthy males; cited from earlier work
[19] = tested on: type 2 diabetic patients; settings: cited from earlier work; for decrease of mean fasting plasma glucose, placebo-corrected: 12 weeks
[20] = tested on: non-diabetic but insulin-resistant patients; settings: cited from earlier work; for reduction of prevalence of metabolic syndrome: NCEP ATPIII criteria
[21] = tested on: diabetic patients; settings: human, in vivo; cited from earlier work
[22] = molecular target: mPPARalpha (Mus musculus, UniProt P23204); settings: read-out: EC50 reporter gene assay, U2 OS cells; cited from earlier work
mPPARalpha, sequence (P23204 whole entry): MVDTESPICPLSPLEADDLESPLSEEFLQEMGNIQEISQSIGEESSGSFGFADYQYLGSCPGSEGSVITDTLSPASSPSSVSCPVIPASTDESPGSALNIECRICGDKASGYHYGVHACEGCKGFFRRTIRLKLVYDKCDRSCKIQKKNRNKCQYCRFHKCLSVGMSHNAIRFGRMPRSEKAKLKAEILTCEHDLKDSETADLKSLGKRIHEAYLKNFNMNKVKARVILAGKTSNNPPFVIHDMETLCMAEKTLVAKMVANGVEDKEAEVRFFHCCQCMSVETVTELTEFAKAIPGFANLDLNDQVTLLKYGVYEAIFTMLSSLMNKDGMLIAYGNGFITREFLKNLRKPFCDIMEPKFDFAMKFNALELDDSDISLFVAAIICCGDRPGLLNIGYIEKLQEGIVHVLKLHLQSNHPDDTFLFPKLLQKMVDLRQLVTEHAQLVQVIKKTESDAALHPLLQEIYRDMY

[23] = tested on: multidrug resistance protein 2; settings: cited from earlier work
[24] = dose for 25% reduction in fasting plasma glucose, insulin and serum TG

Cc1oc(-c2ccccc2)nc1CCOc1ccc(CC2SC(=O)NC2=O)c2sccc12 (centres unmarked) [edaglitazone]
lowering of free fatty acid levels ([1]; 1 mg/kg): 16%
reduction in serum triglyceride levels ([1]; 1 mg/kg): 14%
lowering of free fatty acid levels ([1]; 10 mg/kg): 70%
reduction in serum triglyceride levels ([1]; 10-mg·kg dose): 70%
lowering of non-starved blood glucose ([1]; 25-mg dose, 12 days): 52%
hypoglycemia ([1]; chronic treatment with 100 mg/kg): did not result in hypoglycemia
reduction of AUC(glucose) ([2]; 1 mg/kg, 14 days): 44%
reduction in non-starved blood glucose concentration ([2]; 0.25 to 10 mg/kg, 12 days): 29%
serum insulin levels ([2]; all doses): dose-dependently decreased
reduction in non-starved blood glucose concentration ([2]; higher doses): 45%
accumulation ([3]; once-daily dosing over 6 weeks): did not accumulate
tolerability ([3]; single ascending dose): very well tolerated
time to plasma peak levels after dosing ([3]; single doses 1-160 mg, healthy males): 2 to 4 h
rate of glucose oxidation [4]: increased

CCO[C@@H](Cc1ccc(OCCc2ccc(OS(C)(=O)=O)cc2)cc1)C(=O)O [tesaglitazar, (S)-2-ethoxy-3-[4-(2-{4-methanesulfonyloxyphenyl}ethoxy)phenyl]propanoic acid]
potency relative to bezafibrate [5]: approximately 10 fold
cholesterol efflux, % of the control level [6]: 156%
decrease of affinity of human LDL for unbound GAGs [7]: 3- to 4 fold
linoleate-induced production of LDL-binding GAGs [7]: abolished
upregulation of CYP4A relative to controls [8]: 15 fold
free fatty acid utilization in adipose tissue, skeletal muscle, liver and heart ([9]; 3 micromol/kg/day for 3 weeks, insulin level-clamped): reduced
glucose utilization in muscle and fat ([9]; 3 micromol/kg/day for 3 weeks): increased
measures of whole-body insulin sensitivity ([9]; 3 micromol/kg/day orally, 3 or 4 weeks): consistently improved or normalized
normalization of total insulin ([9]; basal conditions, toward lean control): 76%
normalization of C-peptide ([9]; basal conditions): 61%
normalization of TGs ([9]; basal conditions): 67%
normalization of free fatty acids ([9]; basal conditions): 15%
glucose infusion rate higher than required in lean controls ([9]; clamp conditions): 13%
increase of rate of glucose infusion vs untreated rats ([9]; clamp conditions): 7.6 fold
normalization of C-peptide ([9]; clamp conditions): 63%
normalization of TGs ([9]; clamp conditions): 72%
normalization of free fatty acids ([9]; clamp conditions): 70%
normalization of total insulin ([9]; clamp conditions): 82%
VLDL apolipoprotein (apo)CIII content ([9]; fasted obese Zucker rats): reduced
increase of plasma TG clearance ([9]; fasted obese Zucker rats): 490%
reduction of rate of hepatic TG production ([9]; fasted obese Zucker rats): 47%
normalization of postprandial excursion in plasma glucose ([9]; glucose/TG (1.7/2.0 g/kg) test meal): 80%
normalization of postprandial excursion in TGs ([9]; glucose/TG test meal): 92%
normalization of postprandial excursion in free fatty acids ([9]; glucose/TG test meal): 75%
normalization of postprandial excursion in insulin ([9]; glucose/TG test meal): 85%
plasma TGs, apoB100 and plasma CETP activity [10]: reduced
basal TG levels ([11]; 1 micromol/kg/day for 1 week): reduced
increase of glucose infusion rate during clamping ([11]; 1 micromol/kg/day for 1 week): 29%
reduction of basal plasma insulin levels ([11]; 1 micromol/kg/day for 1 week): 36%
increase of uptake of non-esterified fatty acids in white adipose tissue ([11]; 1 micromol/kg/day for 3 weeks, basal conditions): 52%
hyperglycemia ([12]; 1 micromol/kg/day for 1 week): normalized
potency relative to pioglitazone [12, 24]: 250 fold
potency relative to rosiglitazone [12, 24]: 7 fold
reduction of plasma cholesterol levels ([13]; 0.5 microg/kg of diet, low- or high-fat diets): approximately 21.5%
reduction of TG levels ([13]; 0.5 microg/kg of diet): approximately 40%
reduction of cross-sectional area of atheromic lesions in the aortic root ([13]; high-fat fed, 28 weeks): 92%
reduction of cross-sectional area of atheromic lesions in the aortic root ([13]; low-fat fed, 16 weeks): 65%
substrate of P-glycoprotein [14]: not substrates of P-glycoprotein
effect on activity of CYP drug metabolizing enzymes [15]: no effect
AUC ([16]; 1 mg intravenous): 16.2 micromolxh/l
AUC ([16]; 1 mg oral): 16.1 micromolxh/l
adverse events ([16]; 1 mg po or iv, healthy volunteers): no serious adverse events
oral bioavailability ([16]; 1 mg): ~100%
clearance (Cl) ([16]; in vivo): 0.16 L/h
elimination half-life ([16]; in vivo): ~45 h
protein-bound ([16]; in vivo): 99.9%
volume of distribution at steady state (Vdss) ([16]; in vivo): 9.1 L
Cmax ([16]; single 1-mg oral dose): 610 nM
median Tmax ([16]; single 1-mg oral dose): ~0.5 h
Tmax ([17]; fasted state): 1 h
Tmax ([17]; fed state): 2.5 h
pharmacokinetic interactions with glibenclamide or metformin [18]: No pharmacokinetic interactions
decrease of mean fasting plasma glucose, placebo-corrected ([19]; 0.1 mg once daily): 8.9 mg/dL
decrease of mean fasting plasma glucose, placebo-corrected ([19]; 0.5 mg): 30.3 mg/dL
decrease of mean fasting plasma glucose, placebo-corrected ([19]; 1.0 mg): 41.1 mg/dL
greatest increase in serum HDL-cholesterol ([19]; 1 mg): 15.0%
decrease of mean fasting plasma glucose, placebo-corrected ([19]; 2.0 mg): 55.0 mg/dL
decrease of mean fasting plasma glucose, placebo-corrected ([19]; 3.0 mg): 60.9 mg/dL
greatest reduction of LDL-cholesterol ([19]; 3 mg): 17.3%
greatest reduction of VLDL-cholesterol ([19]; 3 mg): 52.5%
maximum reduction in free fatty acids ([19]; 2-mg dose): 36.7%
maximum reduction in serum TGs ([19]; 2-mg dose): 41.0%
mean increase in serum creatinine ([20]; 0.1 mg): 1 µmol/L
patients with adverse events ([20]; 0.1 mg): 65%
reduction in mean hemoglobin level ([20]; 0.1 mg): 0.16 mmol/L
patients with adverse events ([20]; 0.25 mg): 51%
reduction of prevalence of metabolic syndrome ([20]; 0.5 mg): 49%
fall in prevalence of impaired fasting glucose ([20]; 0.5 mg): 23%
patients with adverse events ([20]; 0.5 mg): 67%
mean reduction in fasting serum TGs, placebo-corrected ([20]; 1 mg, 12 weeks): 37%
reduction of prevalence of metabolic syndrome ([20]; 1.0 mg): 45%
reduction of AUC for plasma free fatty acids ([20]; 1 mg, after lipid-rich meal): 29%
reduction of AUC for plasma insulin ([20]; 1 mg, after lipid-rich meal): 31%
reduction of AUC for serum TGs ([20]; 1 mg, after lipid-rich meal): 41%
reduction of AUC for serum glycerol ([20]; 1 mg, after lipid-rich meal): 34%
reduction of plasma glucose level at 2 h ([20]; 1 mg, after lipid-rich meal): 27%
increase in serum HDL-cholesterol ([20]; 1 mg): 16%
mean reduction in fasting insulin ([20]; 1 mg): 35%
mean reduction in non-HDL-cholesterol ([20]; 1 mg): 15%
mean reduction in non-esterified fatty acids ([20]; 1 mg): 40%
mean reduction in plasma glucose concentration ([20]; 1 mg): 0.47 mmol/L
reduction in mean hemoglobin level ([20]; 1 mg): 0.55 mmol/L
fall in prevalence of impaired fasting glucose ([20]; 1.0 mg): 59%
mean increase in serum creatinine ([20]; 1.0 mg): 8 µmol/L
patients with adverse events ([20]; 1.0 mg): 60%
increase in weight ([20]; 0.5 and 1 mg, 12 weeks): approximately 1 kg
increase of ApoA-1 ([20]; 1-mg dose): 4%
reduction of ApoB ([20]; 1-mg dose): 12%
reduction of ApoB/ApoA-1 ratio ([20]; 1-mg dose): 16%
reduction of ApoCIII ([20]; 1-mg dose): 25%
rates of edema [21]: 4.2 to 6.8%
EC50 [22]: 32 µM
transport in Caco2 and MDCK-MDR1 monolayers [23]: apparently transported by multidrug resistance protein 2
